Measured values as given in PubChem BioAssay (NCI).
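Cultured in 96-well plates, cells were exposed to test compound for 48 hours across five concentrations. GI50 = concentration required for 50% inhibition of growth. The concentration for full growth arrest is given as TGI.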

What was measured:
Assay in all cases: NCI tumour cell line growth inhibition, 48 h
SK-MEL-5 melanoma = test system: SK-MEL-5 melanoma
HL-60(TB) leukemia = test system: HL-60(TB) leukemia
U251 CNS = test system: U251 CNS
MCF7 breast = test system: MCF7 breast
HT29 colon = test system: HT29 colon
MALME-3M melanoma = test system: MALME-3M melanoma
NCI-H226 lung = test system: NCI-H226 lung
SK-OV-3 ovarian = test system: SK-OV-3 ovarian
SF-539 CNS = test system: SF-539 CNS
HCT-15 colon = test system: HCT-15 colon

Structure (SMILES) | GI50 (SK-MEL-5 melanoma) [µM] | TGI (SK-MEL-5 melanoma) [µM] | GI50 (HL-60(TB) leukemia) [µM] | TGI (HL-60(TB) leukemia) [µM] | GI50 (U251 CNS) [µM] | TGI (U251 CNS) [µM] | GI50 (MCF7 breast) [µM] | TGI (MCF7 breast) [µM] | GI50 (HT29 colon) [µM] | TGI (HT29 colon) [µM] | GI50 (MALME-3M melanoma) [µM] | TGI (MALME-3M melanoma) [µM] | GI50 (NCI-H226 lung) [µM] | TGI (NCI-H226 lung) [µM] | GI50 (SK-OV-3 ovarian) [µM] | TGI (SK-OV-3 ovarian) [µM] | GI50 (SF-539 CNS) [µM] | TGI (SF-539 CNS) [µM] | GI50 (HCT-15 colon) [µM] | TGI (HCT-15 colon) [µM]
CN(CCCCCl)P(=O)(OCc1ccc([N+](=O)[O-])o1)C(F)(F)c1ccc(CC(=O)N[C@@H](CC(=O)O)C(=O)N[C@@H](Cc2ccc(C(F)(F)P(=O)(OCc3ccc([N+](=O)[O-])o3)N(C)CCCCCl)cc2)C(N)=O)cc1 (some centres undefined) | 43.8 | > 100 | 28 | 64.5 | 50.8 | > 100 | 32.8 | > 100 | 60.4 | > 100 | > 100 | > 100 | > 100 | > 100 | > 100 | > 100 | 31 | 99.8 | > 100 | > 100
O=C(CSc1nc2ccc([N+](=O)[O-])cc2[nH]1)Nc1cccc(Cl)c1 | 1.2 | 2.6 | 3 | 12.2 | 2.6 | 13.1 | 2.41 | 10.5 | 2.75 | 10.7 | 1.87 | 8.17 | 2.38 | 9.93 | 2.03 | 6.45 | 3.02 | 11.7 | 3.06 | 15
COC(=O)C(/C(=N/N)C(=O)Nc1ccc(C)c(C)c1)c1nc2ccc(Cl)cc2[nH]c1=O (centres undefined) |  | > 100 |  | > 100 |  | > 100 |  | > 100 |  | > 100 |  | > 100 |  | > 100 |  | > 100 |  | > 100 |  | > 100
CCOC(=O)C1=C(N)Oc2c(sc3c(C)cccc23)C1c1ccc(Cl)cc1 (centres undefined) | 4.04 | 14.4 | 2.56 | 7.81 | 3.46 | 14.8 | 0.655 | 10.9 | 3.16 | 11.8 | 5.19 | 19.6 | 5.02 | 19.8 | 7.97 | 30.1 | 1.8 | 5.57 | 2.02 | 10.6
Fc1ccc(CNc2c3ccccc3nc3ccccc23)cc1 | 1.73 | 3.1 | 2.9 | 8.97 | 3.02 | 14.1 | 1.79 | 4.97 | 2.27 | 9.54 | 2.18 | 5.48 | 2 | 5.44 | 2.56 | 10.1 | 2.22 | 5.7 | 1.98 | 5.31
O=C(c1ccccn1)c1nnn2ccccc12 |  | > 100 |  | > 100 |  | > 100 |  | > 100 |  | > 100 |  | > 100 |  | > 100 |  | > 100 |  | > 100 |  | > 100
COc1ccc2nc3cccc([N+](=O)[O-])c3c(NCCN(CCO)CCO)c2c1 |  | 0.0175 | 0.0235 | 1.49 | 0.021 | 0.136 | 0.0138 | 0.548 | 0.0117 | 0.043 | 0.0158 | 0.0408 | 0.0822 | 0.536 | 0.106 | 0.771 | 0.0893 | 0.27 | 0.157 | 60.8
